Source: ChEMBL document CHEMBL3997790, “The oxidative induction of DNA lesions in cancer cells by 5-thio-d-glucose and 6-thio-d-fructopyranose and their genotoxic effects. Part 3” (Bioorg Med Chem Lett, 2017)
Activity calls are given as the source filed them. No cut-off for these calls is given here.

Assays:
HeLa [1] = experiment: Induction of apoptosis in human HeLa cells at 0.5 mM after 4 hrs by Annexin-V-FITC/PI staining based flow cytometry; assay type: functional, cell-based
[2] = system: Escherichia coli DH5[alpha]; experiment: Induction of DNA damage in Escherichia coli DH5alpha supercoiled pUC19 DNA assessed as decrease in covalently closed circular DNA forms at 0.1 to 1 mM by ethidium bromide staining based agarose gel electrophoresis
HeLa [3] = experiment: Geno-toxicity in human HeLa cells assessed as induction of DNA damage at 0.1 mM at 4 degC by alkaline comet assay; assay type: functional, cell-based
HeLa [4] = experiment: Geno-toxicity in human HeLa cells assessed as induction of DNA damage at pH 12.1 after 1 hr by comet assay; assay type: functional, cell-based
HeLa [5] = experiment: Geno-toxicity in human HeLa cells assessed as induction of DNA damage at 0.6 mM in presence of 5 mM glucose after 1 hr by alkaline comet assay; assay type: functional, cell-based
[6] = system: Escherichia coli DH5[alpha]; experiment: Induction of DNA damage in Escherichia coli DH5alpha supercoiled pUC19 DNA assessed as increase in open circular forms at 0.1 to 1 mM by ethidium bromide staining based agarose gel electrophoresis
HeLa [7] = experiment: Down regulation of NCOA7 mRNA expression in human HeLa cells at 0.5 mM after 1 hr by qRT-PCR method; assay type: functional, cell-based
HeLa [8] = experiment: Induction of DNA damage in human HeLa cells at 0.1 mM in presence of antioxidant vitamin E after 1 hr by alkaline comet assay; assay type: functional, cell-based
HeLa [9] = experiment: Upregulation of FHL2 mRNA expression in human HeLa cells at 0.5 mM after 1 hr by qRT-PCR method; assay type: functional, cell-based
HeLa [10] = experiment: Geno-toxicity in human HeLa cells assessed as induction of DNA damage at 0.1 mM at 37 degC by alkaline comet assay; assay type: functional, cell-based
HeLa [11] = experiment: Upregulation of NOX5 mRNA expression in human HeLa cells at 0.5 mM after 1 hr by qRT-PCR method; assay type: functional, cell-based
[12] = system: Escherichia coli DH5[alpha]; experiment: Induction of DNA damage in Escherichia coli DH5alpha supercoiled pUC19 DNA assessed as increase in linear DNA forms at 0.1 to 1 mM by ethidium bromide staining based agarose gel electrophoresis
HeLa [13] = experiment: Induction of DNA damage in human HeLa cells assessed as increase in oxidative DNA lesions by measuring oxidized purines at 0.1 mM preincubated for 1 hr followed by formamidopyrimidine DNA glycosylase addition measured after 30 mins by alkaline comet assay; assay type: functional, cell-based
HeLa [14] = experiment: Geno-toxicity in human HeLa cells assessed as induction of DNA damage by measuring double stranded DNA breaks at 0.02 to 0.5 mM after 1 hr by neutral comet assay; assay type: functional, cell-based
HeLa [15] = experiment: Induction of DNA damage in human HeLa cells assessed as increase in oxidative DNA lesions by measuring oxidized purines at 0.1 mM preincubated for 1 hr followed by human 8-oxoguanine DNA N-glycosylase1 addition measured after 30 mins by alkaline comet assay; assay type: functional, cell-based
HeLa [16] = experiment: Induction of oxidative DNA damage in human HeLa cells at 0.05 to 0.5 mM in presence of PBN spin trap after 1 hr by alkaline comet assay; assay type: functional, cell-based
HeLa [17] = experiment: Cytotoxicity against human HeLa cells assessed as decrease in cell viability at 0.6 mM in presence of 5 mM glucose after 14 hrs by WST-8 based CCK-8 assay; assay type: functional
HeLa [18] = experiment: Geno-toxicity in human HeLa cells assessed as induction of DNA damage after 1 hr by alkaline comet assay; assay type: functional, cell-based
HeLa [19] = experiment: Induction of DNA damage in human HeLa cells assessed as increase in oxidative DNA lesions by measuring oxidized pyrimidines at 0.1 mM preincubated for 1 hr followed by endonuclease3 addition measured after 30 mins by alkaline comet assay; assay type: functional, cell-based
HeLa [20] = experiment: Induction of mitochondrial membrane depolarization in human HeLa cells at 0.5 mM by JC-1 staining based flow cytometry; assay type: functional, cell-based
HeLa [21] = experiment: Induction of DNA damage in human HeLa cells at 0.1 mM in presence of antioxidant epikatehin after 1 hr by alkaline comet assay; assay type: functional, cell-based
HeLa [22] = experiment: Induction of ROS production in human HeLa cells at 0.1 mM after 24 hrs by H2DCFDA probe based fluorescence assay; assay type: functional, cell-based
HeLa [23] = experiment: Geno-toxicity in human HeLa cells assessed as induction of DNA damage at 0.1 mM by alkaline comet assay; assay type: functional, cell-based; conditions: TDE = time-dependent effect
HeLa [24] = experiment: Geno-toxicity in human HeLa cells assessed as induction of DNA damage by measuring double stranded DNA breaks at 0.19 to 0.76 mM after 1 hr by neutral comet assay; assay type: functional, cell-based
HeLa [25] = experiment: Geno-toxicity in human HeLa cells assessed as induction of DNA damage at 0.2 mM at 4 degC by alkaline comet assay; assay type: functional, cell-based
HeLa [26] = experiment: Cytotoxicity against human HeLa cells assessed as decrease in cell viability at 0.5 mM in presence of 5 mM glucose after 14 hrs by WST-8 based CCK-8 assay; assay type: functional
HeLa [27] = experiment: Induction of oxidative DNA damage in human HeLa cells at 0.19 to 0.76 mM in presence of PBN spin trap after 1 hr by alkaline comet assay; assay type: functional, cell-based
HeLa [28] = experiment: Induction of ROS production in human HeLa cells at 0.2 mM after 24 hrs by H2DCFDA probe based fluorescence assay; assay type: functional, cell-based
HeLa [29] = experiment: Geno-toxicity in human HeLa cells assessed as induction of DNA damage at 0.2 mM at 37 degC by alkaline comet assay; assay type: functional, cell-based
HeLa [30] = experiment: Geno-toxicity in human HeLa cells assessed as induction of DNA damage at 0.5 mM in presence of 5 mM glucose after 1 hr by alkaline comet assay; assay type: functional, cell-based
HeLa [31] = experiment: Geno-toxicity in human HeLa cells assessed as induction of DNA damage at 0.2 mM by alkaline comet assay; assay type: functional, cell-based; conditions: TDE = time-dependent effect

SMILES	Activity (HeLa [1])	Activity [2]	Activity (HeLa [4])	Activity [6]	Activity (HeLa [7])	Activity (HeLa [8])	Activity (HeLa [9])	Activity (HeLa [11])	Activity [12]	Activity (HeLa [13])	Activity (HeLa [15])	Activity (HeLa [18])	Activity (HeLa [19])	Activity (HeLa [20])	Activity (HeLa [21])	further results
OC[C@H]1SC(O)[C@H](O)[C@@H](O)[C@@H]1O (stereo partly specified)	inactive	inactive	Dose-dependent effect	inactive	Active	inactive	Active	Active	inactive	Active	Active	Dose-dependent effect	Active	inactive	inactive	Activity (HeLa [3]): Active; Activity (HeLa [5]): Active; Activity (HeLa [10]): inactive; Activity (HeLa [14]): inactive; Activity (HeLa [16]): inactive; Activity (HeLa [17]): Active; Activity (HeLa [22]): Active; Activity (HeLa [23]): Tde
OC[C@@]1(O)SC[C@@H](O)[C@@H](O)[C@@H]1O	inactive	inactive	Dose-dependent effect	inactive	Active	inactive	Active	Active	inactive	Active	Active	Dose-dependent effect	Active	inactive	inactive	Activity (HeLa [24]): inactive; Activity (HeLa [25]): Active; Activity (HeLa [26]): Active; Activity (HeLa [27]): inactive; Activity (HeLa [28]): Active; Activity (HeLa [29]): inactive; Activity (HeLa [30]): Active; Activity (HeLa [31]): Tde
